In ChEMBL document CHEMBL1131391, “Identification and characterization of m4 selective muscarinic antagonists” (Bioorg Med Chem Lett, 1998):

How the values were obtained:
[1] = target: T1, Muscarinic acetylcholine receptor M5 (Homo sapiens, UniProt P08912); test: Evaluated for its binding affinity at human muscarinic receptor m5 by the displacement of [3H]NMS binding using membranes from transfected chinese hamster ovarian cell
T1 sequence (P08912 whole entry): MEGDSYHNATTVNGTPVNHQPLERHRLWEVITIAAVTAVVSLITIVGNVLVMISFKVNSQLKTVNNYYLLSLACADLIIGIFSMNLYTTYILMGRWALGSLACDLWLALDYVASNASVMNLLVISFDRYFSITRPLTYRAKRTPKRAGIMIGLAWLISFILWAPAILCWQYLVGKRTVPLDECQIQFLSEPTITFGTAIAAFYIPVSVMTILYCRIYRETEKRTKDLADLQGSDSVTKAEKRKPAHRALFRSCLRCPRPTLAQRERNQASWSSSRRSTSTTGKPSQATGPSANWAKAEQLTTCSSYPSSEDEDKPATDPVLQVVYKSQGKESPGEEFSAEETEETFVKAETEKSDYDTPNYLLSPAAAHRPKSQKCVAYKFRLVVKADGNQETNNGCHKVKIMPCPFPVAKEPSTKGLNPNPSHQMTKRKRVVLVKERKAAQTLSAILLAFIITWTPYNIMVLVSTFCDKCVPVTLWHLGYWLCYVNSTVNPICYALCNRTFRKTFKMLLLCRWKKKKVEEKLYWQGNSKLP

[2] = target: T2, Muscarinic acetylcholine receptor M1 (Homo sapiens, UniProt P11229); test: Evaluated for its binding affinity at human muscarinic receptor m1 by displacement of [3H]NMS binding using membranes in transfected chinese hamster ovarian cell; type: cell-based
T2 sequence (P11229 whole entry): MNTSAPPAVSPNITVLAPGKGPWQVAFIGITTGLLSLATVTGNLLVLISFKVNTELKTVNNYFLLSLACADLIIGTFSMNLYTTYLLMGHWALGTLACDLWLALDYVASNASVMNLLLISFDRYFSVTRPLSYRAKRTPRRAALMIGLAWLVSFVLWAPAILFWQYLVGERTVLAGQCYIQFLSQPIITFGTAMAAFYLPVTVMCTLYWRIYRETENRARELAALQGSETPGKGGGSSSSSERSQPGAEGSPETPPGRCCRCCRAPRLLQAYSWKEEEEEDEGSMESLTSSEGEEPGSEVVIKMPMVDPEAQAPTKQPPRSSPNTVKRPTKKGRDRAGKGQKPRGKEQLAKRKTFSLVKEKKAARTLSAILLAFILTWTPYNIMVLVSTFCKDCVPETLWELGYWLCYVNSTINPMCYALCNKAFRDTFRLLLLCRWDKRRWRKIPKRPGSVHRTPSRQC

[3] = target: T3, Muscarinic acetylcholine receptor M3 (Homo sapiens, UniProt P20309); test: Evaluated for its binding affinity at human muscarinic receptor m3 by the displacement of [3H]NMS binding using membranes from transfected chinese hamster ovarian cell; type: cell-based
Target sequence in this assay (P20309 whole entry): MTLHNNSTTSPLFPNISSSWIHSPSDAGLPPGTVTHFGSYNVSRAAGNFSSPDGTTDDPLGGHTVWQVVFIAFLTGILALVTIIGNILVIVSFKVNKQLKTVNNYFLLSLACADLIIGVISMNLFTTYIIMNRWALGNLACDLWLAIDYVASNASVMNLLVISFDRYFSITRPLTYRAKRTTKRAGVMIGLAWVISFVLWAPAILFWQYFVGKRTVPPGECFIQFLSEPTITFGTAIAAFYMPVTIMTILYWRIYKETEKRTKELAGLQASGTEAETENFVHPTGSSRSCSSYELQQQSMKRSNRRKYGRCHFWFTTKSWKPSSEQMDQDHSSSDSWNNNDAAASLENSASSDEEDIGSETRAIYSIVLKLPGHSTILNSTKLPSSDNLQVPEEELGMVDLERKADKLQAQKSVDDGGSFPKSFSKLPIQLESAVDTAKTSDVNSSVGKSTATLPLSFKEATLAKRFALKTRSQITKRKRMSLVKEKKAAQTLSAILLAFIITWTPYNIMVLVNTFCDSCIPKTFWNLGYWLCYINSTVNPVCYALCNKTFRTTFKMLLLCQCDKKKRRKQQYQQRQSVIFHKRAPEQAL

[4] = target: T4, Muscarinic acetylcholine receptor M4 (Homo sapiens, UniProt P08173); test: Evaluated for its binding affinity at human muscarinic receptor m4 by the displacement of [3H]NMS binding using membranes from transfected chinese hamster ovarian cell
T4 sequence (P08173 whole entry): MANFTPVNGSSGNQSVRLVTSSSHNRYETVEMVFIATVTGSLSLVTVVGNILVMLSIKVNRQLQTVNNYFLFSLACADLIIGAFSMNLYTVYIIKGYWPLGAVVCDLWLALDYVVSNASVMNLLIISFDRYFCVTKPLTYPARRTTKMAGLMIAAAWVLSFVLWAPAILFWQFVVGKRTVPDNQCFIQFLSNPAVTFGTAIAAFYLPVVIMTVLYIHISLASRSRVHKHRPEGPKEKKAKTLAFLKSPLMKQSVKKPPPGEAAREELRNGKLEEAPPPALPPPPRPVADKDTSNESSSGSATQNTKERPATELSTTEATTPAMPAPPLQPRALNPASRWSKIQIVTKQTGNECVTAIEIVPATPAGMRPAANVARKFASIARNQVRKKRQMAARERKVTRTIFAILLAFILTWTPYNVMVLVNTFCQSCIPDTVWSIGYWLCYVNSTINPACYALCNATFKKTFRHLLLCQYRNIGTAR

[5] = target: T5, Muscarinic acetylcholine receptor M2 (Homo sapiens, UniProt P08172); test: Evaluated for its binding affinity at human muscarinic receptor m2 by displacement of [3H]NMS binding using membranes from transfected chinese hamster ovarian cell
T5 sequence (P08172 whole entry): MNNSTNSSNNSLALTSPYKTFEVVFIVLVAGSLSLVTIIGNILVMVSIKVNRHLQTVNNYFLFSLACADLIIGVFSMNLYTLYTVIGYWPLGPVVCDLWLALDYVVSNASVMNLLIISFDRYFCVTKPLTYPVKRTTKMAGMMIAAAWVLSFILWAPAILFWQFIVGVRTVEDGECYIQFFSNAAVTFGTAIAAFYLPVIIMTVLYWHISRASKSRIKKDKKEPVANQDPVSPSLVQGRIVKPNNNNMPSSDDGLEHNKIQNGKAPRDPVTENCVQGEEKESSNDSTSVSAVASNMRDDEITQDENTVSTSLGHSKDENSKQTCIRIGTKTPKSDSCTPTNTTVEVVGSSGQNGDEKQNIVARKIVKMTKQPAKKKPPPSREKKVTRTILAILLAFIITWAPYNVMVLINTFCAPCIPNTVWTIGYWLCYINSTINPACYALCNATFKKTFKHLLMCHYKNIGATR

[6] = target: T6, Muscarinic acetylcholine receptor M4 (Homo sapiens) (UniProt P08173); test: Compound was evaluated for its binding affinity at human muscarinic receptor Hm4 by the displacement of [3H]-NMS radioligand using membranes from transfected chinese hamster ovarian cell at 1000 nM concentration
T6 sequence (whole entry): T4 sequence (P08173 whole entry)

[7] = target: T7, Muscarinic acetylcholine receptor M2 (Homo sapiens) (UniProt P08172); test: Compound was evaluated for its binding affinity at human muscarinic receptor m2 by displacement of [3H]NMS radioligand using membranes from transfected chinese hamster ovarian cell at 100 nM concentration
T7 sequence (whole entry): T5 sequence (P08172 whole entry)

[8] = target: T3, Muscarinic acetylcholine receptor M3; test: Compound was evaluated for its binding affinity at human muscarinic receptor Hm3 by the displacement of [3H]NMS radioligand using membranes from transfected chinese hamster ovarian cell at 1000 nM concentration
Target sequence in this assay (P20309 whole entry, looked up): as the sequence (P20309 whole entry) above

[9] = target: T7, Muscarinic acetylcholine receptor M2 (Homo sapiens); test: Compound was evaluated for its binding affinity at human muscarinic receptor m2 by the displacement of [3H]NMS radioligand using membranes from transfected chinese hamster ovarian cell at 1000 nM concentration
[10] = target: T6, Muscarinic acetylcholine receptor M4 (Homo sapiens); test: Compound was evaluated for its binding affinity at human muscarinic receptor Hm4 by the displacement of [3H]NMS radioligand using membranes from transfected chinese hamster ovarian cell at 100 nM concentration
[11] = target: T8, Muscarinic acetylcholine receptor M5 (Homo sapiens) (UniProt P08912); test: Compound was evaluated for its binding affinity at human muscarinic receptor Hm5 by the displacement of [3H]NMS radioligand using membranes from transfected chinese hamster ovarian cell at 100 nM concentration
T8 sequence (whole entry): T1 sequence (P08912 whole entry)

[12] = target: T8, Muscarinic acetylcholine receptor M5 (Homo sapiens); test: Compound was evaluated for its binding affinity at human muscarinic receptor Hm5 by the displacement of [3H]-NMS radioligand using membranes from transfected chinese hamster ovarian cell at 1000 nM concentration
[13] = target: T3, Muscarinic acetylcholine receptor M3; test: Compound was evaluated for its binding affinity at human muscarinic receptor Hm3 by the displacement of [3H]NMS radioligand using membranes from transfected chinese hamster ovarian cell at 100 nM concentration
Target sequence in this assay (P20309 whole entry, looked up): as the sequence (P20309 whole entry) above

SMILES | IC50 [1] [µM] | IC50 [2] [µM] | IC50 [3] [µM] | IC50 [4] [µM] | IC50 [5] [µM] | inhibition [6] [%] | inhibition [7] [%] | inhibition [8] [%] | inhibition [9] [%] | inhibition [10] [%] | inhibition [11] [%] | inhibition [12] [%] | inhibition [13] [%]
CCOC(=O)c1c(C)[nH]c2ccc3c(c12)CN1CCc2cc(OC)c(OC)cc2C1O3 (stereo unspecified) | 26.6 | 12.9 | 1.62 | 0.301 | 9.34 |  |  |  |  |  |  |  | 
CCCOC(=O)c1c(C)[nH]c2ccc3c(c12)CN1CCc2cc(OC)ccc2C1O3 (stereo unspecified) | 3.81 | 1.96 | 1.48 | 0.36 | 1.91 |  |  |  |  |  |  |  | 
CCOC(=O)c1c[nH]c2ccc3c(c12)CN1CCc2cc(OC)c(OC)cc2C1O3 (stereo unspecified) | 47.4 | 8.22 | 10.3 | 1.5 | 7.7 |  |  |  |  |  |  |  | 
COc1ccc2c(c1)CCN1Cc3c(ccc4[nH]c(C)c(C(=O)OC(C)C)c34)OC21 (stereo unspecified) | 4.74 | 4.06 | 2.82 | 2.05 | 2.64 |  |  |  |  |  |  |  | 
COc1cc2c(cc1OC)C1Oc3ccc4[nH]c(C)cc4c3CN1CC2 (stereo unspecified) | 43.5 | 32.7 | 32.6 | 4.74 | 14.7 |  |  |  |  |  |  |  | 
CC1OC(=O)[C@H]2C[C@H]3CCCC[C@@H]3[C@@H](/C=C/C3CCC[C@H](C)N3C)[C@@H]12 (single isomer, unassigned) [HIMBACINE] | 1.02 | 0.548 |  |  | 0.0175 |  |  |  |  |  |  |  | 
CCOC(=O)c1c(C)[nH]c2ccc3c(c12)C[N+]1(C)CCc2cc(OC)ccc2C1O3 (stereo unspecified) |  |  |  |  |  | 19.9 | 14.7 | 0 | 29.9 | 0 | 0.9 | 1.6 | 0
COC(=O)c1c(C)[nH]c2ccc3c(c12)CN1CCc2cc(OC)ccc2C1O3 (stereo unspecified) | 4.09 | 3.79 | 3.39 | 0.501 | 13.1 |  |  |  |  |  |  |  | 
CCOC(=O)c1c(C)[nH]c2ccc3c(c12)CN1CCc2cc(C)ccc2C1O3 (stereo unspecified) | 3.88 | 3.28 | 2.72 | 0.465 | 9.52 |  |  |  |  |  |  |  | 
CCOC(=O)c1c[nH]c2ccc3c(c12)CN1CCc2cc(OC)ccc2C1O3 (stereo unspecified) | 6 | 5.62 | 3.7 | 0.334 | 4.56 |  |  |  |  |  |  |  | 
COC(=O)c1c(C)[nH]c2ccc3c(c12)CN1CCc2ccccc2C1O3 (stereo unspecified) | 5.76 | 7.12 | 12.6 | 9.93 | 4.66 |  |  |  |  |  |  |  | 

The remaining compounds from weak to strong by IC50 [1], led by results:

IC50 [1] [µM] | IC50 [2] [µM] | IC50 [3] [µM] | IC50 [4] [µM] | IC50 [5] [µM] | inhibition [6] [%] | inhibition [7] [%] | inhibition [8] [%] | inhibition [9] [%] | inhibition [10] [%] | inhibition [11] [%] | inhibition [12] [%] | inhibition [13] [%] | SMILES
18 | 10.8 | 15.3 | 9.74 | 1.15 |  |  |  |  |  |  |  |  | COc1ccc2c(c1)CCN1Cc3c(ccc4[nH]c(C)cc34)OC21 (stereo unspecified)
8.62 | 4.25 | 2.63 | 1.62 | 2.56 |  |  |  |  |  |  |  |  | CCOC(=O)c1c(C)[nH]c2ccc3c(c12)CN1CCc2cc(OCC)ccc2C1O3 (stereo unspecified)
8.21 | 9.02 | 10.8 | 6.03 | 3 |  |  |  |  |  |  |  |  | CCOC(=O)c1c(C)[nH]c2ccc3c(c12)CN1CCc2ccc(OC)cc2C1O3 (stereo unspecified)
7.41 | 6.56 | 0.95 | 0.0907 | 3.44 |  |  |  |  |  |  |  |  | CCOC(=O)c1c(C)[nH]c2ccc3c(c12)CN1CCc2cc(OC)ccc2C1O3 (stereo unspecified)
4.19 | 5.01 | 5.49 | 3.71 | 2.68 |  |  |  |  |  |  |  |  | CCOC(=O)c1c(C)[nH]c2ccc3c(c12)CN1CCc2ccccc2C1O3 (stereo unspecified)
2.03 | 1.96 | 3.07 | 2.63 | 1.65 |  |  |  |  |  |  |  |  | CCOC(=O)c1c(C)[nH]c2ccc3c(c12)CN1CCc2cc(Oc4ccccc4)ccc2C1O3 (stereo unspecified)
1.73 | 6.11 | 2.83 | 1.47 | < 1 |  |  |  |  |  |  |  |  | CCOC(=O)c1c(C)[nH]c2ccc3c(c12)CN1CCc2cccc(C)c2C1O3 (stereo unspecified)
